In US20080319000A1, “Use of 3,1IB-Cis-Dihydrotetrabenazine for the Treatment of Symptoms of Huntingtons Disease” (CAMBRIDGE LABORATORIES (IRELAND) LIMITED, priority 2005, published 2008):

Tested on: dopamine receptor
Assay: Dopamine receptor binding

For `COc1cc2c(cc1OC)[C@H]1C[C@H](O)[C@@H](CC(C)C)CN1CC2` (single isomer, unassigned) [Isomer B], the “dopamine receptor binding activity” value was “only weak or non-existent”.
